Test results as given in patent publication US20100009956A1, “NOVEL SUBSTITUTED PYRIMIDINES AS CYSTEINE PROTEASE INHIBITORS” (Glaxo Group Limited , a corporation, priority 2006, published 2010).
Where a name gives a salt, the structure may show the parent alone. Read-outs that look alike come from different tables or passages of the source.

Columns and labels:
Assay type in all cases: biochemical
Falcipain-2 = Falcipain-2 (Plasmodium falciparum, UniProt Q8I6U4); assay: Falcipain-2 enzymatic assay (assay 1)
Sequence of Falcipain-2 (Q8I6U4 244-484): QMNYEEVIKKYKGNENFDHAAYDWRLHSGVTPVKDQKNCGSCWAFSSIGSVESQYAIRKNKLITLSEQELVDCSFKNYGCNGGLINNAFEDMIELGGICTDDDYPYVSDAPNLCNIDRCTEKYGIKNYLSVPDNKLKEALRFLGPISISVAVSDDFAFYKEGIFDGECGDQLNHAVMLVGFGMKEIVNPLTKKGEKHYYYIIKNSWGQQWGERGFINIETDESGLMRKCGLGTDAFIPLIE
Experimental: (§1) Assay 1) Determination of Falcipain-2, Falcipain-3, Vivapain-2, Cathepsin K Cathepsin S, Cathepsin L, and Cathepsin B Proteolytic Catalytic Activity
(§2) Assays for Falcipain-2, Falcipain-3, and Vivapain-2 are carried out with parasitic recombinant enzymes. Cathepsins K, S, L, and B are carried out with human recombinant enzymes. Standard assay conditions for the determination of kinetic constants used a fluorogenic peptide substrate, typically H-D-VLR-AFC (Falcipain-2, Falcipain-3, Vivapain-2), Z-FR-AFC (Cathepsin K, L, B), or KQKLR-AMC (Cathepsin S) and are determined in 100 mM sodium acetate, pH 5.5, containing 10 mM DTT and 0.5 mM CHAPS (Falcipain-2, Falcipain-3, Vivapain-2), and 100 mM sodium acetate, pH 5.5, containing 5 mM L-cysteine, 1 mM CHAPS and 5 mM EDTA (Cathepsin K, L, B), or 50 mM MES, pH 6.5, containing 0.5 mM CHAPS, 10 mM L-CYS, 5 mM EDTA (Cathepsin S). Stock substrate solutions are prepared at 20 mM in DMSO. The activity assays contained 30 uM substrate (Falcipain-2, Falcipain-3, Vivapain-2), 20 uM substrate (Cathepsin K), 25 uM substrate (Cathepsin B), 5 uM substrate (Cathepsin L), and 30 uM substrate (Cathepsin S). All assays contained 1% DMSO. […] All assays are conducted at ambient temperature as end point assays being quenched after 60 minutes with the exception of Cathepsin S at 90 minutes, with 16.6 uM E-64 in 1% DMSO. Product formation (AFC or AMC) is determined from fluorescence (excitation at 405 nm; emission at 530 nm, AFC, or excitation at 360 nm; emission at 460 nm, AMC) monitored with a LJL Aquest (Molecular Devices) fluorescent plate reader. In the case of kinetic reads (used in mechanism of action studies), the reaction is not quenched but is read in the plate reader every 3 minutes for approximately 90 minutes. In addition, the mechanism of action studies for Falcipain-2 utilize Z-LR-AMC as the substrate. Product formation is determined from the fluorescence of AMC, measured with a LJL Acquest (Molecular Devices) fluorescent plate reader (excitation at 360 nm; emission at 460 nm).
(§3) Potential inhibitors are evaluated using the quenched read (endpoint) method. Assays are carried out in the presence of variable concentrations of test compound. Reactions are initiated by addition of enzyme and substrate to wells containing inhibitor stamped in 100% DMSO. For endpoint assays, the reaction is quenched with the addition of E64. Dose response data is fit to an IC50 curve with preset fitting tools according to equation 1:
(§4) y=a+(b−a)/(1+(10^x/10^c)^d) (1)
(§5) where y is the response at a particular inhibitor concentration x, a is the minimum response value, b is the maximum response value, c is the IC50, and d is the slope of the IC50 curve. Assuming the compound is a competitive inhibitor, the apparent KI can be calculated from IC50, as shown in equation 2: […]

Falcipain-3 = Falcipain-3 (Plasmodium falciparum, UniProt Q8IIL0); assay: Falcipain-3 enzymatic assay (assay 1)
Sequence of Falcipain-3 (Q8IIL0 243-492): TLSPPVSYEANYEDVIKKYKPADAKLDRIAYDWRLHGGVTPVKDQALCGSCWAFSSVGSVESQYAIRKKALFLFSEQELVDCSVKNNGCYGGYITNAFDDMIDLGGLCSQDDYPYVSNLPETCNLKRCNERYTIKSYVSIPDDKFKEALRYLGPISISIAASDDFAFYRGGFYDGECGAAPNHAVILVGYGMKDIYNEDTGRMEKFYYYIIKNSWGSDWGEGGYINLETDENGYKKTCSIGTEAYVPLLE
Experimental: as §1, §2, §3, §4, §5

Cathepsin K = biological target: T1, Cathepsin K (Homo sapiens, UniProt P43235); assay: Cathepsin K enzymatic assay (assay 1); settings: human recombinant enzyme, Z-FR-AFC substrate, pH 5.5
T1 sequence (P43235 115-329): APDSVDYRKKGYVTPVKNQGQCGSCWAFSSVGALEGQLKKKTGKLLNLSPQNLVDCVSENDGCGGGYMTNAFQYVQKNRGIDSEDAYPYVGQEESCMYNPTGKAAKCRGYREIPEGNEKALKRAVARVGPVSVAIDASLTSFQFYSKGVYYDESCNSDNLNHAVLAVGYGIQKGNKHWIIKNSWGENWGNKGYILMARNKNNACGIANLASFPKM
Experimental: as §1, §2, §3, §4, §5

| Structure (SMILES) | IC50 (Falcipain-2) | IC50 (Falcipain-3) | IC50 (Falcipain-3; parasitic recombinant enzyme, H-D-VLR-AFC substrate, pH 5.5, endpoint read, read-out: Falcipain-3 IC50) | IC50 (Cathepsin K) | IC50 (Falcipain-2; parasitic recombinant enzyme, H-D-VLR-AFC substrate, pH 5.5, endpoint read, read-out: Falcipain-2 IC50) |
| --- | --- | --- | --- | --- | --- |
| CC(C)N(Cc1ccc(C(=O)NN(c2nc(C#N)ncc2Cl)C2CCCC2)cc1)C1CCCCC1 [Example 75, N′-(5-chloro-2-cyano-4-pyrimidinyl)-4-{[cyclohexyl(1-methylethyl)amino]methyl}-N′-cyclopentylbenzohydrazide trifluoroacetate] | < 1 nM | 2.5 to 15 nM | – | – | – |
| CN1CCC(CN2CCN(Cc3cccc(C(=O)NN(c4nc(C#N)ncc4Br)C4CCCC4)c3)CC2)CC1 [Example 15, N′-(5-bromo-2-cyano-4-pyrimidinyl)-N′-cyclopentyl-3-({4-[(1-methyl-4-piperidinyl)methyl]-1-piperazinyl}methyl)benzohydrazide trifluoroacetate] | < 1 nM | – | 2.5 to 15 nM | < 1.5 nM | – |
| CN1CCCC(CN2CCN(Cc3ccc(C(=O)NN(c4nc(C#N)ncc4Br)C4CCCCC4)cc3)CC2)C1 (centres unmarked) [Example 25, N′-(5-bromo-2-cyano-4-pyrimidinyl)-N′-cyclohexyl-4-({4-[(-methyl-3-piperidinyl)methyl]-1-piperazinyl}methyl)benzohydrazide trifluoroacetate] | < 1 nM | 2.5 to 15 nM | – | < 1.5 nM | – |
| CN1CCN(C2CCN(Cc3ccc(C(=O)NN(c4nc(C#N)ncc4Br)C4CCCC4)cc3)CC2)CC1 [Example 10, N′-(5-bromo-2-cyano-4-pyrimidinyl)-N′-cyclopentyl-4-{[4-(4-methyl-1-piperazinyl)-1-piperidinyl]methyl}benzohydrazide trifluoroacetate] | < 1 nM | 2.5 to 15 nM | – | < 1.5 nM | – |
| C[C@@H]1CCC[C@H]1N(NC(=O)c1ccc(CN2CCN(C)CC2)cc1)c1nc(C#N)ncc1Br [Example 3, N′-(5-bromo-2-cyano-4-pyrimidinyl)-N′-[(1R,2R+1S,2S)-2-methylcyclopentyl]-4-[(4-methyl-1-piperazinyl)methyl]benzohydrazide trifluoroacetate] | < 1 nM | 2.5 to 15 nM | – | < 1.5 nM | – |
| CCN(C)Cc1ccc(C(=O)NN(c2nc(C#N)ncc2Cl)C2CCCC2)cc1 [Example 74, N′-(5-chloro-2-cyano-4-pyrimidinyl)-N′-cyclopentyl-4-{[ethyl(methyl)amino]methyl}benzohydrazide trifluoroacetate] | < 1 nM | 15 to 150 nM | – | – | – |
| CN1CCN(C(=O)C2CCN(Cc3ccc(C(=O)NN(c4nc(C#N)ncc4Br)C4CCCCC4)cc3)CC2)CC1 [Example 22, N′-(5-bromo-2-cyano-4-pyrimidinyl)-N′-cyclohexyl-4-({4-[(4-methyl-1-piperazinyl)carbonyl]-1-piperidinyl}methyl)benzohydrazide trifluoroacetate] | < 1 nM | 2.5 to 15 nM | – | < 1.5 nM | – |
| C[C@H]1CCC[C@H]1N(NC(=O)c1ccc(CN2CCN(C)CC2)cc1)c1nc(C#N)ncc1Br [Example 2, N′-(5-bromo-2-cyano-4-pyrimidinyl)-N′-[(1 R,2S+1S,2R)-2-methylcyclopentyl]-4-[(4-methyl-1-piperazinyl)methyl]benzohydrazide trifluoroacetate] | 1 to 2.5 nM | 15 to 150 nM | – | < 17 nM | – |
| N#Cc1ncc(Br)c(N(NC(=O)c2cccc(CN3CCC(N4CCOCC4)CC3)c2)C2CCCC2)n1 [Example 13, N′-(5-bromo-2-cyano-4-pyrimidinyl)-N′-cyclopentyl-3-{[4-(4-morpholinyl)-1-piperidinyl]methyl}benzohydrazide trifluoroacetate] | < 1 nM | 2.5 to 15 nM | – | – | – |
| N#Cc1ncc(Br)c(N(NC(=O)c2ccc(CN3CCC(N4CCOCC4)CC3)cc2)C2CCCC2)n1 [Example 6, N′-(5-bromo-2-cyano-4-pyrimidinyl)-N′-cyclopentyl-4-{([4-(4-morpholinyl)-1-piperidinyl]methyl}benzohydrazide trifluoroacetate] | < 1 nM | 2.5 to 15 nM | – | < 1.5 nM | – |
| CN(CCO)Cc1ccc(C(=O)NN(c2nc(C#N)ncc2Cl)C2CCCC2)cc1 [Example 58, N′-(5-chloro-2-cyano-4-pyrimidinyl)-N′-cyclopentyl-4-{[(2-hydroxyethyl)(methyl)amino]methyl}benzohydrazide trifluoroacetate] | < 1 nM | 1 to 2.5 nM | – | – | – |
| CN1CCN(c2cccc(C(=O)NN(c3nc(C#N)ncc3Cl)C3CCCC3)n2)CC1 [Example 78, N′-(5-chloro-2-cyano-4-pyrimidinyl)-N′-cyclopentyl-6-(4-methyl-1-piperazinyl)-2-pyridinecarbohydrazide trifluoroacetate] | < 1 nM | 15 to 150 nM | – | – | – |
| CN1CCN(Cc2ccc(C(=O)NN(CC(C)(C)C)c3nc(C#N)ncc3Br)cc2)CC1 [Comparative Example 39, N′-(5-bromo-2-cyano-4-pyrimidinyl)-N′-(2,2-dimethylpropyl)-4-[(4-methyl-1-piperazinyl)methyl]benzohydrazide trifluoroacetate, reference compound] | 15 to 150 nM | 150 to 250 nM | – | – | – |
| CCN(Cc1ccc(C(=O)NN(c2nc(C#N)ncc2Cl)C2CCCC2)cc1)C(C)C [Example 68, N′-(5-chloro-2-cyano-4-pyrimidinyl)-N′-cyclopentyl-4-{[ethyl(1-methylethyl)amino]methyl}benzohydrazide trifluoroacetate] | < 1 nM | 2.5 to 15 nM | – | – | – |
| CN(Cc1ccc(C(=O)NN(c2nc(C#N)ncc2Cl)C2CCCC2)cc1)C(C)(C)C [Example 73, N′-(5-chloro-2-cyano-4-pyrimidinyl)-N′-cyclopentyl-4-{[(1,1-dimethylethyl)(methyl)amino]methyl}benzohydrazide trifluoroacetate] | < 1 nM | 2.5 to 15 nM | – | – | – |
| CN(Cc1ccc(C(=O)NN(c2nc(C#N)ncc2Cl)C2CCCC2)cc1)CC(O)CO (centres unmarked) [Example 76, N′-(5-chloro-2-cyano-4-pyrimidinyl)-N′-cyclopentyl-4-{[(2,3-dihydroxypropyl)(methyl)amino]methyl}benzohydrazide trifluoroacetate] | < 1 nM | 2.5 to 15 nM | – | – | – |
| CC1CCC(N(NC(=O)c2ccc(CN3CCN(C)CC3)cc2)c2nc(C#N)ncc2Br)C1 (mixture of isomers) [Example 26, N′-(5-bromo-2-cyano-4-pyrimidinyl)-N′-(3-methylcyclopentyl)-4-[(4-methyl-1-piperazinyl)methyl]benzohydrazide trifluoroacetate] | < 1 nM | 15 to 150 nM | – | – | – |
| CN1CCN(C2CCN(Cc3ccc(C(=O)NN(c4nc(C#N)ncc4Br)C4CCN(C(=O)OCc5ccccc5)CC4)cc3)CC2)CC1 [Example 48, Phenylmethyl 4-{1-(5-bromo-2-cyano-4-pyrimidinyl)-2-[(4-{[4-(4-methyl-1-piperazinyl)-1-piperidinyl]methyl}phenyl)carbonyl]hydrazino}-1-piperidinecarboxylate triflouroacetate] | 1 to 2.5 nM | 2.5 to 15 nM | – | – | – |
| CN1CCN(Cc2ccc(C(=O)NN(c3nc(C#N)ncc3Cl)C3CCOCC3)cc2)CC1 [Example 67, N′-(5-chloro-2-cyano-4-pyrimidinyl)-4-[(4-methyl-1-piperazinyl)methyl]-N′-(tetrahydro-2H-pyran-4-yl)benzohydrazide trifluoroacetate] | < 1 nM | 2.5 to 15 nM | – | – | – |
| CN1CCN(Cc2ccc(C(=O)NN(c3nc(C#N)ncc3Br)C3CCOCC3)cc2)CC1 [Example 42, N′-(5-bromo-2-cyano-4-pyrimidinyl)-4-[(4-methyl-1-piperazinyl)methyl]-N′-(tetrahydro-2H-pyran-4-yl)benzohydrazide trifluoroacetate] | – | 15 to 150 nM | – | – | < 1 nM |
